Measured values taken from paper PMC4073510, “Identification of natural antimicrobial agents to treat dengue infection: In vitro analysis of latarcin peptide activity against dengue virus” (BMC Microbiology, 2014).
Read-outs that look alike come from different tables or passages of the source. No end group written: not given here.

Assays:
[1] = target: T1, dengue NS2B-NS3pro (DENV2 serine protease, recombinant single chain NS2B (G4-T-G4) NS3pro) (Dengue virus type 2, UniProt P14340); experiment: Dengue NS2B-NS3 protease (NS2B-NS3pro) assay; assay type: biochemical, Dengue virus serotype-2 (DENV2); settings: 2 μM NS2B-NS3pro, 100 μM Boc-Gly-Arg-Arg-AMC, pH 8.5, 200 mM Tris-HCl, 30 min pre-incubation + 30 min with substrate, fluorescence ex 350/em 440 nm, triplicate, repeated twice, ± SD, read-out: IC50 (inhibitory concentration of 50% of enzyme activity)
T1 construct: 1394–1440 in DENV2 polyprotein; 1476–1660 in DENV2 polyprotein; made in house; host or cells: E. coli
Experimental: The NS2B-NS3pro assay was performed to examine whether the Ltc 1 peptide inhibits the DENV2 serine protease. Briefly, a single chain NS2B (G4-T-G4) NS3pro was produced as a recombinant protein in E. coli as previously described. The end point reaction mixture was performed in black 96-well plates, which contained 2 μM recombinant NS2B-NS3pro, 100 μM fluorogenic peptide substrate (Boc-Gly-Arg-Arg-AMC) and varying concentrations of the Ltc 1 peptide (0.1 to 40 μM) buffered at pH 8.5 with 200 mM Tris-HCl in a total volume of 200 μl. The reaction mixtures without peptide, substrate with the peptides, enzyme and different concentrations of the peptides were used as controls. […] Measurements were performed in triplicate using a Tecan Infinite M200 Pro fluorescence spectrophotometer (Tecan Group Ltd., Switzerland). […] The fluorescence values obtained with the no-inhibitor control (0.0 μM peptide) were set at 100%, and those in the presence of peptide were calculated as a percentage of the control using non-linear regression in GraphPad Prism (version 5.01) software. The IC50 was calculated from nonlinear regression fitting of the signal vs. concentration data points to the standard dose–response equation Y = Bottom + (Top - Bottom)/(1 + 10^^((X - LogIC50))). […] The inhibition percentage was calculated using the following formula: […]

Vero cells = experiment: Cytotoxicity, Non-Radioactive Cell Proliferation assay; assay type: cell-based; settings: Vero cells (method), 72 h
Experimental: The cytotoxicity of the Ltc 1 peptides was evaluated by determining the maximal non-toxic dose (MNTD) and the 50% cytotoxic concentration (CC50) of the cells using the Non-Radioactive Cell Proliferation assay (Promega, USA) according to the manufacturer’s instructions. […] Vero cells were seeded at 1×10^4 cells/well in triplicate under optimal conditions (37°C, 5% CO2 in a humidified incubator) in 96-well plates with blank controls (media only) and cell controls (cells only). After an overnight incubation, the cells were treated with increasing concentrations of Ltc 1 peptide (0, 4, 8, 16, 32, 64 and 120 μM) with DMEM medium supplemented with 2% FBS and the cell culture was analysed after 72 h. The percentage of cell viability was calculated as follows: […] (absorbance of treated cells/absorbance of untreated cells) × 100. The MNTD and CC50 values were calculated from the dose-response curves.

HepG2 cells = experiment: Real Time Cell Proliferation Assay (RTCA, xCELLigence); assay type: cell-based, human
Experimental: This assay was performed to test the real time effects of the Ltc 1 peptide on cell viability. Cell proliferation was measured using the xCELLigence Real-Time Cellular Analysis (RTCA) system (Roche, Germany) as described previously. Cell viability and growth were monitored continuously after applying increasing concentrations of the Ltc 1 peptide (0, 12.5, 25, 50, 100, 150, 200, 250 μM). Briefly, the background measurements were recorded after adding 100 μl culture medium to the wells. Next, the cells were seeded at a density of 1 × 10^4 cell/well in a 16-well plate with electrodes for 18 h to allow the cells to grow to log phase. The cells were treated with different concentrations of peptide dissolved in cell culture medium and continuously monitored for up to 100 h. The cell sensor impedance was expressed as an arbitrary unit named the cell index. The cell index was recorded every 5 minutes using a RTCA analyser. To eliminate variation between the wells, the cell index values were normalised to the value at the beginning of the treatment.

DENV2 = experiment: Dose-response assay, viral RNA by one-step qRT-PCR; assay type: cell-based, Dengue virus serotype-2 (DENV2); settings: HepG2 infected with DENV2, MOI 2, peptide 0-80 μM added after infection, quadruplicate experiments, ± SD
Experimental: This assay was performed to evaluate the 50% effective concentration (EC50) of the Ltc 1 peptide against DENV2. HepG2 cells were grown in six-well microplates (1.5 × 10^6 cells/well) for 24 h in quadruplicate experiments. The cell culture media were removed and the cells were washed three times with PBS. Then, fresh medium containing the virus supernatant was added at MOI of 2, followed by incubation for 1 h with gentle shaking every 15 min. The viral residues were removed by washing with PBS, and serial dilutions of the Ltc 1 peptide (0, 2.5, 5, 10, 20, 40, 80 μM) were added. […] The cell supernatants were collected and stored at -80°C for viral load determination using viral RNA and were quantified using one step qReal time-PCR.
The DENV2 copy number was quantified in the culture supernatants using one-step quantitative real-time PCR. Known copies of the viral RNA were 10-fold serially diluted to generate a standard curve. The viral RNA was extracted using the QIAmp viral RNAmini kit (QIAGEN, Germany), and the qRT-PCR was performed using a SYBR Green Master Kit (Qiagen, Germany). Triplicate reactions were performed for each sample, and a no template control was included as a negative control. Absolute quantification was performed using an ABI7500 machine (Applied Biosystems, Foster City, CA). The results were analysed using Sequence Detection Software Version 1.3 (Applied Biosystems, Foster City, CA). The percentage of viral inhibition (%) was calculated as follows: 100 – (viral copy number of treated cells/viral copy number of untreated cells) × 100.

[2] = cited from earlier work
Excerpt: Natural antimicrobial peptides (AMPs) are produced in the majority of living organisms as protection against various pathogens, including viruses. […] Therefore, the objective of this study was to identify and characterise the inhibitory potential of the latarcin peptide (Ltc 1, […]) against dengue virus replication in human cells. Ltc 1 is one of approximately seven latarcin peptides, which are produced in the venom gland of Lachesana tarab ...

mammalian cells = settings: cited from earlier work
[3] = system: dengue protease NS2B-NS3pro; settings: compared to the other standard serine protease inhibitors; cited from earlier work
Excerpt: Previous studies reported various inhibitors against dengue protease, including standard serine protease inhibitors, substrate based inhibitors, and non-substrate based inhibitors.

T1 sequence (P14340 1476-1660): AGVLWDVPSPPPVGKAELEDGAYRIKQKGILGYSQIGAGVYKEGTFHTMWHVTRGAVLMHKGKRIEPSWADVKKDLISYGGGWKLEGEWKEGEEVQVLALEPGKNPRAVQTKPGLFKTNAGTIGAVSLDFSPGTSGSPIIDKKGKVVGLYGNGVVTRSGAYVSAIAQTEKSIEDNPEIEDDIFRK
T1 sequence (P14340 1394-1440): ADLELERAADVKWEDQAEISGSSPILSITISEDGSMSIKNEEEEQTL

Substance	IC50 ([1]; 37°C) [µM]	IC50 ([1]; 40°C (high fever-like)) [µM]	cell viability (Vero cells; 25 μM peptide) [%]	CC50 (50% cytotoxic concentration) (Vero cells; 0-120 μM peptide, DMEM 2% FBS, 37°C, triplicate, ± SD)	effect on cell proliferation (HepG2 cells; 25 μM, 110 h, cell index similar to untreated control cells)	effect on cell proliferation (HepG2 cells; 50 μM, after 66 h of incubation, HepG2 cells)	maximal non-toxic dose (MNTD) (HepG2 cells; HepG2 cells, real-time cell index, concentrations 0-250 μM) [µM]	effect on cell proliferation (HepG2 cells; concentrations higher than 50 μM, all time-points)	EC50 (DENV2; 24 h) [µM]	EC50 (DENV2; 48 h) [µM]	EC50 (DENV2; 72 h) [µM]	haemolytic activity [2]	induction of cell apoptosis (mammalian cells)	inhibitory effect against the dengue protease [3]
SMWSGMWRRKLKKLRNALKKKLKGE [Ltc 1]	12.7 ± 3.2	6.58 ± 4.1	80	approximately 52.51 ± 3.6 μM	insignificant	significantly decreased	25	toxic to the cells	8.3 ± 1.2	7.6 ± 2.7	6.8 ± 2.5	moderate haemolytic activity	induces cellular changes that lead to cell apoptosis	–
aprotinin	–	–	–	–	–	–	–	–	–	–	–	–	–	picomolar levels
